The record followed here is patent US20110021565A1, “PIPERIDINE DERIVATIVES AS NK3 ANTAGONISTS” (priority 2007, published 2011).

The target in the first assay is T1, recombinant human NK3 receptor (Homo sapiens, UniProt P29371).
T1 construct: expressed in transfected cells; host or cells: HEK293 cells, transient expression; membrane preparation
T1 sequence (P29371 1-465): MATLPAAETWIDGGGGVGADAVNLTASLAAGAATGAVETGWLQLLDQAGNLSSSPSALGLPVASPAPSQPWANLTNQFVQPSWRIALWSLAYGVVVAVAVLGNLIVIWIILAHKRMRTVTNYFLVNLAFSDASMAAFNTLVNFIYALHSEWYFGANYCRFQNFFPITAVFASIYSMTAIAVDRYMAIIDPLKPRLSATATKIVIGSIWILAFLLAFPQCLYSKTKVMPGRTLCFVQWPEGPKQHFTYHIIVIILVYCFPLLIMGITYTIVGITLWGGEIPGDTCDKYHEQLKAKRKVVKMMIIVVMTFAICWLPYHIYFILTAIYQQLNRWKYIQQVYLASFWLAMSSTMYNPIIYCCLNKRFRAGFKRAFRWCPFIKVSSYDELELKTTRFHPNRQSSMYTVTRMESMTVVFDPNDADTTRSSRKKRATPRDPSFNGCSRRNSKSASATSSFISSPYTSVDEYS
Put plainly: [3H]SR142801 competition binding assay. The settings on record: [3H]SR142801, membranes of HEK293 cells transiently expressing recombinant human NK3 receptor; read-out: hNK3 Ki. As to the method:
[^3H]SR142801 Competition Binding Assay
hNK3 receptor binding experiment were performed using [^3H]SR142801 (Catalog No. TRK1035, specific activity: 74.0 Ci/mmol, Amersham, GE Healthcare UK limited, Buckinghamshire, UK) and membrane isolated from HEK293 cells transiently expressing recombinant human NK3 receptor. After thawing, the membrane homogenates were centrifuged at 48,000×g for 10 min at 4° C., the pellets were resuspended in the 50 mM Tris-HCl, 4 mM MnCl2, 1 μM phosphoramidon, 0.1% BSA binding buffer at pH 7.4 to a final assay concentration of 5 μg protein/well. For inhibition experiments, membranes were incubated with [^3H]SR142801 at a concentration equal to KD value of radioligand and 10 concentrations of the inhibitory compound (0.0003-10 μM) (in a total reaction volume of 500 μl) for 75 min at room temperature (RT). At the end of the incubation, membranes were filtered onto unitfilter (96-well white microplate with bonded GF/C filter preincubated 1 h in 0.3% PEI+0.3% BSA, Packard BioScience, Meriden, Conn.) with a Filtermate 196 harvester (Packard BioScience) and washed 4 times with ice-cold 50 mM Tris-HCl, pH 7.4 buffer. Nonspecific binding was measured in the presence of 10 μM SB222200 for both radioligands. The radioactivity on the filter was counted (5 min) on a Packard Top-count microplate scintillation counter with quenching correction after addition of 45 μl of microscint 40 (Canberra Packard S. A., Zurich, Switzerland) and shaking for 1 h. Inhibition curves were fitted according to the Hill equation: y=100/(1+(x/IC50)^nH), where nH=slope factor using Excel-fit 4 software ([…]). IC50 values were derived from the inhibition curve and the affinity constant (IQ values were calculated using the Cheng-Prussoff equation Ki=IC50/(1+[L]/KD) where [L] is the concentration of radioligand and KD is its dissociation constant at the receptor, derived from the saturation isotherm. All experiments were performed in duplicate and the mean±standard error (SEM) of the individual Ki values was calculated.
`CC(=O)NC1CCN(CCC(C)(C(=O)N[C@H](CO)c2ccc(Cl)c(Cl)c2)c2ccc(Cl)c(Cl)c2)CC1` (single isomer, unassigned; diastereoisomer 2) [Example 159]: the Ki worked out at 258 nM. On the same count and under the same terms, the figure for `CCCN(C(C)=O)C1CCN(CCC(C)(C(=O)N[C@@H](CO)c2ccc(F)cc2)c2ccc(Cl)c(Cl)c2)CC1` (single isomer, unassigned; epimer 1) [Example 162] is 0.5 nM. As for `CCN(C(C)=O)C1CCN(CCC(C)(C(=O)N[C@@H](CO)c2ccc(F)cc2)c2ccc(Cl)c(Cl)c2)CC1` (single isomer, unassigned; epimer 1) [Example 166], the Ki came to 2.2 nM. Same read-out and setting: the figure for `CCCN(C(C)=O)C1CCN(CCC(C)(C(=O)N[C@@H](CO)c2ccc(F)cc2)c2ccc(Cl)c(Cl)c2)CC1` (single isomer, unassigned; epimer 2) [Example 163] is 5.6 nM. On the same count and under the same terms, the figure for `CCN(C(C)=O)C1CCN(CCC(C)(C(=O)N[C@@H](CO)c2ccc(F)cc2)c2ccc(Cl)c(Cl)c2)CC1` (single isomer, unassigned; epimer 2) [Example 167] is 34.9 nM; for `COCCN(C(C)=O)C1CCN(CCC(C)(C(=O)N[C@@H](CO)c2ccc(Cl)cc2)c2ccc(Cl)c(Cl)c2)CC1` (stereo in doubt) [Example 147, 4-{4-[Acetyl-(2-methoxy-ethyl)-amino]-piperidin-1-yl}-N-[1-(4-chloro-phenyl)-2-hydroxy-ethyl]-2-(3,4-dichloro-phenyl)-2-methyl-butyramide] it is 382 nM. On the same count and under the same terms, the figure for `COc1ccc(CN(C)C(=O)C(C)(CCN2CCC(NS(C)(=O)=O)CC2)c2ccc(Cl)c(Cl)c2)cc1F` (stereo not drawn) [Example 1, 2-(3,4-Dichloro-phenyl)-N-(3-fluoro-4-methoxy-benzyl)-4-(4-methanesulfonylamino-piperidin-1-yl)-2,N-dimethyl-butyramide] is 187 nM; for `COc1ccc(C(NC(=O)C(C)(CCN2CCC(NS(C)(=O)=O)CC2)c2ccc(Cl)c(Cl)c2)C2CC2)cc1` (stereo not drawn) [Example 2, N-[Cyclopropyl-(4-methoxy-phenyl)-methyl]-2-(3,4-dichloro-phenyl)-4-(4-methanesulfonyl-amino-piperidin-1-yl)-2-methyl-butyramide] it is 703 nM. Take `CN(Cc1ccc(F)c(C(F)(F)F)c1)C(=O)C(C)(CCN1CCC(NS(C)(=O)=O)CC1)c1ccc(Cl)c(Cl)c1` (stereo not drawn) [Example 3, 2-(3,4-Dichloro-phenyl)-N-(4-fluoro-3-trifluoromethyl-benzyl)-4-(4-methanesulfonyl-amino-piperidin-1-yl)-2,N-dimethyl-butyramide]: the Ki worked out at 23.2 nM. The same measure, in the same setting: the figure for `CC(CCN1CCC(NS(C)(=O)=O)CC1)(C(=O)NCc1cc(C(F)(F)F)cc(C(F)(F)F)c1)c1ccc(Cl)c(Cl)c1` (stereo not drawn) [Example 4, N-(3,5-Bis-trifluoromethyl-benzyl)-2-(3,4-dichloro-phenyl)-4-(4-methanesulfonyl-amino-piperidin-1-yl)-2-methyl-butyramide] is 140 nM; for `COc1cc(CN(C)C(=O)C(C)(CCN2CCC(NS(C)(=O)=O)CC2)c2ccc(Cl)c(Cl)c2)ccc1OC(F)F` (stereo not drawn) [Example 5, 2-(3,4-Dichloro-phenyl)-N-(4-difluoromethoxy-3-methoxy-benzyl)-4-(4-methanesulfonyl-amino-piperidin-1-yl)-2,N-dimethyl-butyramide] it is 272 nM; for `Cc1ccc(CN(C)C(=O)C(C)(CCN2CCC(NS(C)(=O)=O)CC2)c2ccc(Cl)c(Cl)c2)cc1` (stereo not drawn) [Example 6, 2-(3,4-Dichloro-phenyl)-4-(4-methanesulfonyl-amino-piperidin-1-yl)-2,N-dimethyl-N-(4-methyl-benzyl)-butyramide] it is 77.4 nM. Turning to `CN(C)c1ccc(CNC(=O)C(C)(CCN2CCC(NS(C)(=O)=O)CC2)c2ccc(Cl)c(Cl)c2)cc1` (stereo not drawn) [Example 7, 2-(3,4-Dichloro-phenyl)-N-(4-dimethylamino-benzyl)-4-(4-methanesulfonyl-amino-piperidin-1-yl)-2-methyl-butyramide], the Ki was determined as 621 nM.

Regarding `CN(Cc1ccc(Cl)c(C(F)(F)F)c1)C(=O)C(C)(CCN1CCC(NS(C)(=O)=O)CC1)c1ccc(Cl)c(Cl)c1` (stereo not drawn) [Example 8, N-(4-Chloro-3-trifluoromethyl-benzyl)-2-(3,4-dichloro-phenyl)-4-(4-methanesulfonyl-amino-piperidin-1-yl)-2,N-dimethyl-butyramide], the Ki turned out to be 22.6 nM.

Take `CN(Cc1ccc(C(F)(F)F)c(F)c1)C(=O)C(C)(CCN1CCC(NS(C)(=O)=O)CC1)c1ccc(Cl)c(Cl)c1` (stereo not drawn) [Example 9, 2-(3,4-Dichloro-phenyl)-N-(3-fluoro-4-trifluoromethyl-benzyl)-4-(4-methanesulfonyl-amino-piperidin-1-yl)-2,N-dimethyl-butyramide]: the Ki is 30 nM. As for `CN(Cc1ccc(Cl)c(Cl)c1)C(=O)C(C)(CCN1CCC(NS(C)(=O)=O)CC1)c1ccc(Cl)c(Cl)c1` (stereo not drawn) [Example 10, N-(3,4-Dichloro-benzyl)-2-(3,4-dichloro-phenyl)-4-(4-methanesulfonyl-amino-piperidin-1-yl)-2,N-dimethyl-butyramide], the Ki came to 24 nM.

As for `CC(CCN1CCC(NS(C)(=O)=O)CC1)(C(=O)NCc1ccc(Cl)c(Cl)c1)c1ccc(Cl)c(Cl)c1` (stereo not drawn) [Example 11, N-(3,4-Dichloro-benzyl)-2-(3,4-dichloro-phenyl)-4-(4-methanesulfonyl-amino-piperidin-1-yl)-2-methyl-butyramide], the Ki was 44.2 nM. Take `CC(CCN1CCC(NS(C)(=O)=O)CC1)(C(=O)NCc1cccc(OC(F)F)c1)c1ccc(Cl)c(Cl)c1` (stereo not drawn) [Example 12, 2-(3,4-Dichloro-phenyl)-N-(3-difluoromethoxy-benzyl)-4-(4-methanesulfonyl-amino-piperidin-1-yl)-2-methyl-butyramide]: the Ki is 309 nM. The same measure, in the same setting: the figure for `CC(CCN1CCC(NS(C)(=O)=O)CC1)(C(=O)NCc1cc(F)ccc1C(F)(F)F)c1ccc(Cl)c(Cl)c1` (stereo not drawn) [Example 13, 2-(3,4-Dichloro-phenyl)-N-(5-fluoro-2-trifluoromethyl-benzyl)-4-(4-methanesulfonyl-amino-piperidin-1-yl)-2-methyl-butyramide] is 580 nM; for `CC(CCN1CCC(NS(C)(=O)=O)CC1)(C(=O)NCc1ccc(C(F)(F)F)cc1)c1ccc(Cl)c(Cl)c1` (stereo not drawn) [Example 14, 2-(3,4-Dichloro-phenyl)-4-(4-methanesulfonyl-amino-piperidin-1-yl)-2-methyl-N-(4-trifluoromethyl-benzyl)-butyramide] it is 58 nM. Same read-out and setting: the figure for `CC(CCN1CCC(NS(C)(=O)=O)CC1)(C(=O)NCc1cc(C(F)(F)F)ccc1F)c1ccc(Cl)c(Cl)c1` (stereo not drawn) [Example 15, 2-(3,4-Dichloro-phenyl)-N-(2-fluoro-5-trifluoromethyl-benzyl)-4-(4-methanesulfonyl-amino-piperidin-1-yl)-2-methyl-butyramide] is 166 nM. With `CC(NC(=O)C(C)(CCN1CCC(NS(C)(=O)=O)CC1)c1ccc(Cl)c(Cl)c1)c1ccc(Cl)cc1` (stereo not drawn) [Example 16, N-[1-(4-Chloro-phenyl)-ethyl]-2-(3,4-dichloro-phenyl)-4-(4-methanesulfonyl-amino-piperidin-1-yl)-2-methyl-butyramide], the Ki came to 173 nM.

With `COc1cccc(CN(C)C(=O)C(C)(CCN2CCC(NS(C)(=O)=O)CC2)c2ccc(Cl)c(Cl)c2)c1` (stereo not drawn) [Example 17, 2-(3,4-Dichloro-phenyl)-4-(4-methanesulfonyl-amino-piperidin-1-yl)-N-(3-methoxy-benzyl)-2,N-dimethyl-butyramide], the Ki amounted to 213 nM. In the case of `CN(Cc1ccccc1Cl)C(=O)C(C)(CCN1CCC(NS(C)(=O)=O)CC1)c1ccc(Cl)c(Cl)c1` (stereo not drawn) [Example 18, N-(2-Chloro-benzyl)-2-(3,4-dichloro-phenyl)-4-(4-methanesulfonyl-amino-piperidin-1-yl)-2,N-dimethyl-butyramide], the Ki stood at 33.3 nM.

The assay is the same for the next values; noted with them: representative compounds; [3H]SR142801, HEK293 membranes, human NK3 receptor; read-out: Ki NK3 h.
Turning to `CCCN(C(C)=O)C1CCN(CCC(C)(C(=O)N[C@@H](CO)c2ccc(F)cc2)c2ccc(Cl)c(Cl)c2)CC1` (single isomer, unassigned; epimer 1) [Example 162], the Ki came out at 0.5 nM.

Consider `CCN(C(C)=O)C1CCN(CCC(C)(C(=O)N[C@@H](CO)c2ccc(F)cc2)c2ccc(Cl)c(Cl)c2)CC1` (single isomer, unassigned; epimer 1) [Example 166], for which the Ki came out at 2.2 nM. Still for that read-out and setting: the figure for `CCCN(C(C)=O)C1CCN(CCC(C)(C(=O)N[C@@H](CO)c2ccc(F)cc2)c2ccc(Cl)c(Cl)c2)CC1` (single isomer, unassigned; epimer 2) [Example 163] is 5.6 nM.

The Ki is the equilibrium dissociation constant of an inhibitor or competing ligand from its target.
